Results: US20080045514A1 (Cytovia, Inc., priority 2006, published 2008)

How the values were obtained:
Format in all cases: cell-based
[1] = test system: human colon carcinoma cell line HCT116; experiment: Caspase cascade activation (EC50), HCT116; conditions: Homo sapiens, HCT-116; HCT116 cells; caspase cascade activation; read-out: caspase potency (EC50) HCT116
Method in brief: (§1)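 Cells in ATCC medium plus 10% FCS, seeded at 0.65×10^6 cells/mL, incubated with compound at 0.016 to 10 μM final, 48 h, 37 °C. Lysis-substrate buffer (14 μM DEVD-R110, 20 mM DTT, pH 7.2, lysolecithin) added; fluorescence read after 3 h at room temperature.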

[2] = test system: human hepatocellular carcinoma cell line SNU398; experiment: Inhibition of cell proliferation (GI50), SNU398; conditions: Homo sapiens; SNU 398 cells, 48 h, CellTiter-Glo
Protocol: (§2) Human breast cancer cell lines T-47D, human hepatocellular carcinoma cell line SNU398, human colon carcinoma cell line HCT116, human lung cancer cell line H1299, human leukemia cell line K562, human lymphoma cell line Raji, human B cell lymphoblastoid cell line Ramos, and human Burkitt's lymphoma cell line Namalwa were grown and harvested as in Example 100. An aliquot of […] of cells (4.4×10^4 cells/mL) was added to a well of a 96-well microtiter plate containing 5 μL of a 10% DMSO in RPMI-1640 media solution containing 10 nM to 100 μM of 3-(2-chlorophenyl)-6-(3,4-methylenedioxyphenyl)-7H-[1,2,4]triazolo[3,4-b][1,3,4]thiadiazine (1 nM to 10 μM final). An aliquot of 45 μL of cells was added to a well of a 96-well microtiter plate containing 5 μL of a 10% DMSO in RPMI-1640 media solution without compound as the control sample for maximal cell proliferation (LMax). The samples were mixed by agitation and then incubated at 37° C. for 48 h in a 5% CO2-95% humidity incubator. After incubation, the samples were removed from the incubator and 25 μL of CellTiter-Glo™ reagent (Promega) was added. The samples were mixed by agitation and incubated at room temperature for 10-15 min. Plates were then read using a luminescent plate reader (Model SPECTRAfluor Plus, Tecan) to give Ltest values.
(§3) The samples were mixed by agitation and then incubated at 37° C. for 0.5 h in a 5% CO2-95% humidity incubator. After incubation, the samples were removed from the incubator and 25 μL of CellTiter-Glo™ reagent (Promega) was added. The samples were mixed by agitation and incubated at […] 10-15 min at room temperature in a 5% CO2-95% humidity incubator. Fluorescence was read as above, (LStart) defining luminescence for initial cell number used as baseline in GI50 determinations.
(§4) Calculation: GI50 (dose for 50% inhibition of cell proliferation) is the concentration where [(Ltest−LStart)/(LMax−LStart)]=0.5.

[3] = test system: human colon carcinoma cell line HCT116; experiment: Inhibition of cell proliferation (GI50), HCT116; conditions: Homo sapiens; HCT 116 cells, 48 h, CellTiter-Glo
Method in brief: (§5)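 Cells (4.4×10^4 cells/mL) exposed to compound at 1 nM to 10 μM final for 48 h at 37 °C, 5% CO2; growth read by CellTiter-Glo luminescence. Baseline luminescence taken after 0.5 h incubation. GI50 is the concentration where (Ltest−LStart)/(LMax−LStart)=0.5, LMax from untreated cells.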

[4] = test system: human breast cancer cell line T-47D; experiment: Caspase cascade activation (EC50), T-47D; conditions: Homo sapiens; T47D cells; caspase cascade activation; read-out: caspase potency (EC50) T47D
Method in brief: as §1

[5] = test system: human Burkitt's lymphoma cell line Namalwa; experiment: Inhibition of cell proliferation (GI50), Namalwa; conditions: Homo sapiens, Burkitts lymphoma cell; Namalwa cells, 48 h, CellTiter-Glo
Method in brief: as §5

[6] = test system: human hepatocellular carcinoma cell line SNU398; experiment: Caspase cascade activation (EC50), SNU398; conditions: Homo sapiens, SNU-398; SNU398 cells; caspase cascade activation; read-out: caspase potency (EC50) SNU398
Method in brief: as §1

[7] = test system: human Burkitt's lymphoma cell line Namalwa; experiment: Caspase cascade activation (EC50), Namalwa; conditions: Homo sapiens, Burkitts lymphoma cell; Namalwa cells; caspase cascade activation; read-out: caspase potency (EC50) Namalwa
Method in brief: as §1

[8] = test system: human breast cancer cell line T-47D; experiment: Inhibition of cell proliferation (GI50), T47D; conditions: Homo sapiens; T47D cells, 48 h, CellTiter-Glo
Protocol: as §2, §3, §4

Structure (SMILES)	EC50 [1] [µM]	GI50 [2] [nM]	GI50 [3] [nM]	EC50 [4] [µM]	GI50 [5] [nM]	EC50 [6] [µM]	EC50 [7] [µM]	GI50 [8] [nM]
COc1ccccc1-c1nnc2n1N=C(c1ccc(N(C)C)cc1)CS2 [Example 77, 6-(4-dimethylaminophenyl)-3-(2-methoxyphenyl)-7H-[1,2,4]triazolo[3,4-b][1,3,4]thiadiazine]	0.011	2	12	0.018	5	0.014	0.007	5
Cc1ccc(C2=Nn3c(nnc3-c3ccccc3C)SC2)cc1 [Example 70, 3-(2-Methylphenyl)-6-(4-methylphenyl)-7H-[1,2,4]triazolo[3,4-b][1,3,4]thiadiazine]	0.205	144	1010	0.546	158	0.165	0.157	500
COc1ccccc1-c1nnc2n1N=C(c1ccc(C(F)(F)F)cc1)CS2 [Example 48, 6-(4-(Trifluoromethyl)phenyl)-3-(2-methoxyphenyl)-7H-[1,2,4]triazolo[3,4-b][1,3,4]thiadiazine]	0.569	120	324	0.545	452	0.511	0.48	690
COc1ccccc1-c1nnc2n1N=C(c1ccc(C)c(N)c1)CS2 [Example 58, 6-(3-Amino-4-methylphenyl)-3-(2-methoxyphenyl)-7H-[1,2,4]triazolo[3,4-b][1,3,4]thiadiazine]	0.054	24	52	0.076	25	0.032	0.03	26
COc1cccc(C2=Nn3c(nnc3-c3ccccc3OC)SC2)c1 [Example 63, 3-(2-Methoxyphenyl)-6-(3-methoxylphenyl)-7H-[1,2,4]triazolo[3,4-b][1,3,4]thiadiazine]	0.277	119	300	0.261	232	0.146	0.128	371
COc1ccccc1-c1nnc2n1N=C(c1ccc(NC(C)C)cc1)CS2 [Example 80, 6-(4-Isopropylaminophenyl)-3-(2-methoxyphenyl)-7H-[1,2,4]triazolo[3,4-b][1,3,4]thiadiazine]	0.204	115	300	0.188	170	0.117	0.115	297
COc1ccc(OC)c(-c2nnc3n2N=C(c2ccc(C)cc2)CS3)c1 [Example 69, 3-(2,5-Dimethoxyphenyl)-6-(4-methylphenyl)-7H-[1,2,4]triazolo[3,4-b][1,3,4]thiadiazine]	0.017	4	41	0.042	10	0.015	0.011	50
COc1ccccc1-c1nnc2n1N=C(c1ccc(C)c(C)c1)CS2 [Example 40, 3-(2-Methoxyphenyl)-6-(3,4-dimethylphenyl)-7H-[1,2,4]triazolo[3,4-b][1,3,4]thiadiazine]	0.065	50	129	0.163	29	0.041	0.049	137
CNc1ccccc1-c1nnc2n1N=C(c1ccc(C)cc1)CS2 [Example 84, 3-(2-Methylaminophenyl)-6-(4-methylphenyl)-7H-[1,2,4]triazolo[3,4-b][1,3,4]thiadiazine]	0.13	154	911	0.528	150	0.148	0.125	498
COc1ccccc1-c1nnc2n1N=C(c1ccc3[nH]c(=O)oc3c1)CS2 [Example 47, 6-(2,3-Dihydro-2-oxobenzo[d]oxazol-6-yl)-3-(2-methoxyphenyl)-7H-[1,2,4]triazolo[3,4-b][1,3,4]thiadiazine]	5.54	1220	3000	2.33	1480	2.75	4.79	3020
COc1ccc(C2=Nn3c(nnc3-c3ccc(Cl)cc3Cl)SC2)cc1 [Example N3]	0.055	13	40	0.284	64	0.052	0.032	34
COc1cccc(-c2nnc3n2N=C(c2ccc(C)cc2)CS3)c1OC [Example 65, 3-(2,3-Dimethoxyphenyl)-6-(4-methylphenyl)-7H-[1,2,4]triazolo[3,4-b][1,3,4]thiadiazine]	0.635	204	4680	0.61	1230	0.522	0.561	1510
COc1ccc(Cl)cc1-c1nnc2n1N=C(c1ccc(C)cc1)CS2 [Example 62, 3-(5-Chloro-2-methoxyphenyl)-6-(4-methylphenyl)-7H-[1,2,4]triazolo[3,4-b][1,3,4]thiadiazine]	0.031	10	50	0.101	15	0.024	0.018	33
Cc1ccc(C2=Nn3c(nnc3-c3ccccc3F)SC2)cc1 [Example 68, 3-(2-Fluorophenyl)-6-(4-methylphenyl)-7H-[1,2,4]triazolo[3,4-b][1,3,4]thiadiazine]	1.26	144	947	5.26	269	0.636	0.481	2760
COc1ccccc1-c1nnc2n1N=C(c1ccc(Cl)c(N)c1)CS2 [Example 59, 6-(3-Amino-4-chlorophenyl)-3-(2-methoxyphenyl)-7H-[1,2,4]triazolo[3,4-b][1,3,4]thiadiazine]	0.059	98	149	0.102	84	0.043	0.034	103
COc1cc(C)ccc1C1=Nn2c(nnc2-c2ccccc2OC)SC1 [Example 41, 6-(2-Methoxy-4-methylphenyl)-3-(2-methoxyphenyl)-7H-[1,2,4]triazolo[3,4-b][1,3,4]thiadiazine]	0.289	117	1270	0.422	208	0.18	0.182	261
COc1ccccc1-c1nnc2n1N=C(c1ccc3c(c1)OCCO3)CS2 [Example 43, 6-(2,3-Dihydrobenzo[b][1,4]dioxin-6-yl)-3-(2-methoxyphenyl)-7H-[1,2,4]triazolo[3,4-b][1,3,4]thiadiazine]	0.025	13	40	0.035	64	0.017	0.015	34
COc1ccc(C2=Nn3c(nnc3-c3ccccc3OC)SC2)cc1 [Example 46, 3-(2-Methoxyphenyl)-6-(4-methoxyphenyl)-7H-[1,2,4]triazolo[3,4-b][1,3,4]thiadiazine]	0.019	10	8	0.043	13	0.017	0.011	12
